Here are results for 34 molecules from a melting point compilation (Tetko et al.; mined from patent text by program, amines drawn as free bases though some values may be those of a salt).

Bounds are passed on as bounds.

A word on the melting point: it is the temperature of the solid-liquid transition. With `CCOC(=O)c1c(Cl)nc2ccccc2c1CCl`, the melting point was > 260 °C. Next, `CCCCCCCCCCCCCCC1Cc2ccc(C(=O)O)cc2N1C` (racemic): 115 to 118 °C. Next, `COc1cc(Nc2c(C#N)cnc3cc(NCCCC4CCN(C)CC4)c(OC)cc23)c(Cl)cc1Cl`: 122 to 124 °C; `CS(=O)(=O)C(=C1CN(C(c2ccccc2)c2ccccc2)C1)c1cccc2cccnc12`: 212 °C; `Cc1ccc(N(C)c2ccco2)cc1O`: 127 to 128 °C. Next, `CC(C)(C)CC(C)(C)c1cc(-n2nc3ccc(C(F)(F)F)cc3n2)c(O)c(C(C)(C)c2ccccc2)c1`: 119 to 121 °C. Molecule `COc1cc2c(cc1C(F)(F)F)N(C(=O)Nc1cc(Br)c(C)c(-c3cccnc3)c1)CC2` yielded a melting point of 216 to 218 °C.

Turning to `CC(C)=C(C(=O)O)c1ccc(F)cc1`, the melting point lay within 124 to 126 °C. Next, `CCOC(=O)c1c(SC)nc(-c2ccc(SC)cc2)n(-c2ccc(F)cc2)c1=O`: 151 to 155 °C; `Sc1nc(-c2ccc3c(c2)OCO3)c(-c2ccc3c(c2)OCO3)[nH]1`: 282 to 283 °C. Next, `COC(=O)c1c(OCc2ccccc2)ccc2c1CC[C@H](NC(C)(C)C)[C@@H]2O` (relative stereo): 104 to 105 °C; `NOCc1ccc2c(c1)-c1n[nH]c(=O)c3cccc(c13)O2`: 294 to 296 °C. Next, `CCOc1ccc([N+](=O)[O-])c(NC23CC4CC(CC(C4)C2)C3)c1`: 147 °C. For the molecule `CC(C)(C)OC(=O)C1(Cl)OC1c1ccc([N+](=O)[O-])cc1` (centres undefined), the melting point was determined as 60 °C. Next, `CS(=O)(=O)c1ccc(-n2nc(C(=O)O)cc2-c2ccc(-c3ccco3)cc2)cc1`: > 280 °C.

`CC(Cc1ccc(Br)cc1)C(=O)O` (centres undefined) displayed a melting point of 69 to 70 °C. Next, `CS(=O)(=O)c1ccc(-c2cnn(-c3ccccc3[N+](=O)[O-])c(=O)c2-c2ccc(F)cc2)cc1`: 236 to 239 °C; `CNCC1Cc2cc(-c3ccccc3)cc(-c3ccc(Cl)cc3)c2O1` (centres undefined): > 250 °C. `COc1cc2c(cc1-c1ccoc1)C(=CNc1ccc(N3CCN(C)CC3)cc1)C(=O)NC2=O` had a melting point of 198 to 220 °C.

`CNC(=NS(=O)(=O)c1ccc(C(F)(F)F)cc1)N1CC(c2ccccc2)C(c2ccc(Cl)cc2)=N1` (single isomer, unassigned; (-)) displayed a melting point of 157 to 160 °C. Next, `CC(=O)N1CCc2c(sc3nc(CN4C(=O)CCC4=O)c(Cl)c(-c4ccc(O)cc4)c23)C1`: 300 °C; `CCNc1cccnc1N1CCN(C(=O)c2ccc(C(=O)NCCO)cn2)CC1`: 178 to 180 °C; `CCOC(=O)N1CCCN(c2nc3ccccc3[nH]2)CC1`: 161 to 162 °C. Next, `Nc1cc(C(=O)O)cc(OCc2ccccc2)c1C(=O)c1ccc(Cl)cc1`: 196 to 197 °C. As for `CN1CCC(C2=C(C#N)C(c3cccc(C#N)c3Br)c3c[nH]nc3N2)CC1` (centres undefined), the melting point is > 270 °C. Next, `CCN(CC)c1cc(-c2ccco2)ncn1`: 179 to 180 °C; `CCOC(=O)CC1(O)C(=O)Nc2ccc(F)cc21` (centres undefined): 133 to 135 °C; `CC(Sc1nc2ccccc2s1)C(N)=O` (centres undefined): 144 to 145 °C. In the case of `c1ccc(-c2cc(-c3csc(Nc4ccccn4)n3)on2)cc1`, the melting point was 211 to 215 °C. For `CCCCn1c(=O)c2c(ncn2S(C)(=O)=O)n(CCCC)c1=O`, the melting point was in the range of 98 to 100 °C. In turn, `C=CC(=O)NCN1CCCC1=O` showed a melting point of 73 to 74 °C.

On to `O=C(Nc1ccccc1)N1CC(Oc2ccc(C(F)(F)F)cc2)C1`, for which the melting point was 174 to 176 °C. Molecule `Cc1c(C)c2c(c(C)c1O)CC[C@@](C)(CCBr)O2` yielded a melting point of 120 °C.

The molecule `CC(C)NCCCCCCOc1ccc(OCc2ccccc2)cc1` showed a melting point of 47 to 49 °C.
